The values that follow come from paper PMC11088877, “AMP-activated protein kinase can be allosterically activated by ADP but AMP remains the key activating ligand” (Biochemical Journal, 2024).

The IC50 is the midpoint of a concentration-inhibition curve. The EC50 is the concentration giving half of the maximal effect. Low readings indicate higher potency in that assay, high ones lower potency in that assay.

Molecules are shown by their SMILES. Values joined by “and” are separate entries in the source; they are usually repeats but may differ in a detail not shown here. Equal values may be shown once. Read-outs that look alike come from different tables or passages of the source.

For test [1], the target named is T1, human α2β2γ1 complex, CBS3 mutant (V276G/L277G) (Homo sapiens, UniProt P54619+P54646, L277G/V276G).
T1 construct: made in house; host or cells: Escherichia coli
Kind of test: Allosteric activation of CBS3 mutant human α2β2γ1 AMPK complex. Type of test: biochemical. An excerpt:
To study allosteric activation with a more well-defined AMPK complex, and to study the effects of mutations in individual adenine nucleotide-binding sites on the γ subunit, we expressed a human α2β2γ1 complex in Escherichia coli and purified it utilizing the polyhistidine tag at the N-terminus of the α2 subunit. […] However, it had not been co-expressed with an N-myristoyl transferase so would not have been N-myristoylated on the β2 subunit. The complex was expressed not only with the WT γ1 sequence but also with mutations affecting hydrophobic residues previously shown to be involved in binding of the adenine moieties of nucleotides at CBS1 (L129D/V130D), CBS3 (V276G/L277G) and CBS4 (I312G). All four complexes co-purified as heterotrimeric 1:1:1 complexes as expected, and were phosphorylated and activated equally well either by CaMKK2 or the LKB1: STRADα:MO25α complex (Supplementary Figure S2). For the studies described below we phosphorylated Thr172 using a GST-tagged CaMKK2 and repurified AMPK using size exclusion chromatography and a glutathione-Sepharose column, which remove CaMKK2.
Figure 4. Allosteric activation of WT and mutant human α2β2γ1 AMPK complex by AMP and ADP at three different concentrations of ATP. The α2β2γ1 complex was phosphorylated on Thr172 prior to assay using CaMKK2. The γ1 subunit was either (A/E): WT; (B/F): a CBS1 mutant (L129D/V130D); (C/G): a CBS3 mutant (V276G/L277G); (D/H): a CBS4 mutant (I312G). Results are means of duplicate assays ± SD; error bars are not shown if they were smaller than the symbols used for mean values. Assays and curve fitting were as in Figure 1 at either 0.2 mM (left panels) or 5 mM (right panels) ATP. Best-fit values for all parameters used to generate the curves are listed in Supplementary Table S1.
Sources of antibodies were as described: pThr172 (AMPK-α: Cell Signaling Technologies, Danvers, MA, U.S.A., Cat# 2535), AMPK-α2 [22]. Rat liver AMPK was purified as described previously. Plasmid encoding human (His)6-tagged AMPK (α2β2γ1, bacterially expressed) generated as in [23], was a gift from AstraZeneca, Cambridge, U.K. The L129D/V130D (CBS1), V276G/L277G (CBS3) and I312G (CBS4) mutations in the α2β2γ1 complex were generated using the Quikchange II site-directed mutagenesis kit (Agilent Technologies) and confirmed by DNA sequencing. Human GST-tagged α2 kinase domain (1–310), LKB1:STRAD-α:MO25-α complexes, GST-tagged CaMKK2 [26], and PPM1A (PP2Cα) were produced as described. Bacterially expressed heterotrimers were activated by phosphorylation of Thr172 by GST-tagged CaMKK2 in the presence of ATP, and CaMKK2 was subsequently removed by passage through glutathione-Sepharose. Human GST-tagged α2 kinase domain was activated in a similar manner except that human (His)6-tagged LKB1:STRAD-α:MO25-α complex was used and removed after activation via passage through a His-Trap column. Recombinant human 5′-nucleotidase, CD73, Cat # 5795-EN-01, was from R&D systems (Minneapolis, MN, U.S.A.).
AMPK assays measured the transfer of radioactivity from [γ-^33P]ATP to a peptide substrate, which was separated from unreacted ATP by binding to P81 paper. This assay was described previously except that we used [γ-^33P] rather than [γ-^32P]ATP. In some assays (specified in Figure legends) the concentration of ATP was increased from 0.2 to 1 or 5 mM ATP, with MgCl2 concentrations maintained at a constant 4.8 mM excess above the concentration of ATP [19]. Where allosteric activation by AMP or ADP was being studied, we used the SAMS peptide as substrate. For all other assays the AMARA peptide was used.

The target in test [2] is T2, human α2β2γ1 complex, CBS1 mutant (L129D/V130D) (Homo sapiens, UniProt P54619+P54646, L129D/V130D).
T2 construct: made in house; host or cells: Escherichia coli
Kind of test: AMPK activation and Thr172 phosphorylation by the LKB1 complex, CBS1 mutant. It is filed as biochemical. The note with it: 300 µM nucleotide, 200 µM ATP. As to the method:
The relative roles of the three CBS sites in the other two mechanisms of activation of AMPK by AMP or ADP, i.e. promotion of Thr172 phosphorylation by LKB1, and protection against Thr172 dephosphorylation by protein phosphatases, have not been examined previously. As expected, incubation of the α2β2γ1 AMPK complex with a fixed, limiting amount of purified LKB1:STRADα:MO25α complex in the presence of 200 µM Mg.ATP^2− caused a large degree of activation (Figure 5A) and phosphorylation (Figure 5B) of AMPK (unphosphorylated α2β2γ1 complex), which were stimulated more than 2-fold by 300 µM AMP and 1.6-fold by 300 µM ADP.
Figure 5. Effects of AMP or ADP on AMPK activation and Thr172 phosphorylation by the LKB1:STRADα:MO25α complex. Unphosphorylated human α2β2γ1 complexes (WT, or with L129D/V130D, V276G/L277G or I312G mutations affecting CBS1, CBS3 or CBS4 respectively) were incubated with ATP and a fixed concentration of the LKB1:STRADα:MO25α complex in the presence or absence of AMP or ADP (both 300 µM), as described in the Materials and methods section. After the incubation aliquots were withdrawn for (A) AMPK assay or (B) Western blots. […] For (B), due to a limit on the number of lanes that could be run on one gel, single replicates from the triplicate assays were analysed. […]

Test [3] deals with bacterially expressed AMPK. Conditions: 5 mM Mg2+, 200 µM ATP, cited from earlier work.

T1 sequence (P54619 whole entry V276G/L277G): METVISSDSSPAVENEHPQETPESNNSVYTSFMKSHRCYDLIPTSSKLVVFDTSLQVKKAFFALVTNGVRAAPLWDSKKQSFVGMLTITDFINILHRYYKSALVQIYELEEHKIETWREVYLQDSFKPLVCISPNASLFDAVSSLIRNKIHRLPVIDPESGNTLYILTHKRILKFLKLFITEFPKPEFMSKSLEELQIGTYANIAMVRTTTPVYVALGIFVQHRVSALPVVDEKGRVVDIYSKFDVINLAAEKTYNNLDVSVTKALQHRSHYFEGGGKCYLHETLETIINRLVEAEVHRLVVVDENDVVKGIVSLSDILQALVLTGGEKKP
T1 sequence (P54646 whole entry): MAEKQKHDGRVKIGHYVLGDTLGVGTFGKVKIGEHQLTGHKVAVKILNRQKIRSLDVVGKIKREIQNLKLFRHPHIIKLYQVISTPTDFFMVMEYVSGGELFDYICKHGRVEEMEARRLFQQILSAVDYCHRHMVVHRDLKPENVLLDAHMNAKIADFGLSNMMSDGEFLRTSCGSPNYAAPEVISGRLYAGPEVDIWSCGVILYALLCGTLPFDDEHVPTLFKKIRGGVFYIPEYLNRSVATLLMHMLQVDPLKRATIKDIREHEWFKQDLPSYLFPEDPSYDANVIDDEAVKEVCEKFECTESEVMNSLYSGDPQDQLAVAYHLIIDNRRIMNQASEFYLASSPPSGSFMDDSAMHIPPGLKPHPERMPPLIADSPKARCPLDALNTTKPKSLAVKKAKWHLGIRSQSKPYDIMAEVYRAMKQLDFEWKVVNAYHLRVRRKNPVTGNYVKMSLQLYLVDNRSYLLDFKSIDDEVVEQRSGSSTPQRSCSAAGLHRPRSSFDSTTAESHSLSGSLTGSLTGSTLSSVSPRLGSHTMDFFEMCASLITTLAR
T1 sequence (O43741 whole entry partner): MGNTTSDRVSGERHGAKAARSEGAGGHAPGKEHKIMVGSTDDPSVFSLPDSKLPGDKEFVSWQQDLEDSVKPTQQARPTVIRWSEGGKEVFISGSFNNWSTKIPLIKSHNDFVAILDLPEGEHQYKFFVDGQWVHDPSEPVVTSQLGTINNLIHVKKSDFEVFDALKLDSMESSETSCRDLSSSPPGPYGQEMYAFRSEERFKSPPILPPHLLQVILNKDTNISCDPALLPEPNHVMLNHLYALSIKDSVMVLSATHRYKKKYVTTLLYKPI
T2 sequence (P54619 whole entry L129D/V130D): as the sequence (P54619 whole entry V276G/L277G) above, with L129D, V130D, G276V, G277L counted along it
T2 sequence (P54646 whole entry): as the sequence (P54646 whole entry) above
T2 sequence (O43741 whole entry partner): as the sequence (O43741 whole entry partner) above

As for `Nc1ncnc2c1ncn2[C@@H]1O[C@H](COP(=O)(O)OP(=O)(O)O)[C@@H](O)[C@H]1O` [ADP], in test [1] (α2β2γ1 CBS3 mutant, 0.2 mM ATP), the “Activation (maximal)” value was “did not cause allosteric activation and none”; the IC50 worked out at 0.5 mM. Also, in test [1] (α2β2γ1 CBS3 mutant, 5.0 mM ATP), the “Activation (maximal)” value is recorded as “essentially abolished allosteric activation” and the midpoint of inhibition, the IC50, lay at 7.6 mM. Moreover, the “effect of nucleotide on activation/phosphorylation by LKB1 in the mutant” value in test [2] was “unaffected”. Further, the “effect on kinase activity” value in test [3] (200 µM ADP) is on record as “a small inhibition”. Further, the allosteric activation entry in test [3] (any ADP concentration up to 200 µM) was “no allosteric activation”.

With `Nc1ncnc2c1ncn2[C@@H]1O[C@H](COP(=O)(O)O)[C@@H](O)[C@H]1O` [AMP], in test [1] (α2β2γ1 CBS3 mutant vs WT, 5 mM ATP), the “increase of EC50 relative to WT” value is listed as 10- to 20 fold. Besides, in test [1] (α2β2γ1 CBS3 mutant, 0.2 mM ATP), the “Activation (maximal)” value was 1.2 (1.1-1.2) fold, the concentration for a half-maximal effect (EC50) came to 0.0029 mM, inhibition was half-maximal at 6.1 mM (IC50) and the IC50/EC50 was 2100. Also, the “activation over basal remaining” value in test [1] (α2β2γ1 CBS3 mutant, 0.2 mM ATP) is given as 20%. In test [1] (α2β2γ1 CBS3 mutant, 5.0 mM ATP), the “Activation (maximal)” value is 2.0- to 2.5 fold and 2.3 (2.1-2.7) fold; the response was half-maximal at 0.37 mM (EC50); the IC50 is 40 mM; the IC50/EC50 is on record as 110. For the same compound, the “effect of nucleotide on activation/phosphorylation by LKB1 in the mutant” value in test [2] is reported as “unaffected”. Moreover, in test [3] (200 µM AMP), the allosteric activation is recorded as approximately 2 fold.
